Patent US9512139B2, “Conformationally constrained, fully synthetic macrocyclic compounds” (POLYPHOR AG, priority 2009, dated 2016)

What was measured:
[1] = biological target: T1, Prostaglandin F (FP) Receptor (Homo sapiens, UniProt P43088); test: Ca2+ assay (FLIPR) for the GPCR prostaglandin F (FP) receptor, agonist and antagonist mode; type: cell-based; settings: 10 μM
T1 construct: host or cells: Ca2+ optimized hematopoietic cell lines (rat)
Method: Biological and Pharmacological Methods 1. Ca^2+ Assays for the GPCRs Motilin Receptor, Prostaglandin F (FP) Receptor, 5-hydroxytryptamine 2B (5-HT2B) Receptor, and Purinoreceptor P2Y1
Assays were performed using on a FLIPR^TETRA fluorometric imaging plate reader (Molecular Devices) with ScreenWorks Version 2 (Molecular Devices) as device operating and data analysis software.
Dose dependent agonist and antagonist activities were determined. Percentage activation and percentage inhibition values were determined.
Percentage activation was determined upon initial addition of the sample compounds followed by 10 minutes incubation at 25° C. Following compound incubation, reference agonists were added at EC80 to determine percentage inhibition.
Reference agonists were purchased from reputable commercial vendors and prepared according to each ligand's specifications. All handling of ligands were done to ensure proper control throughout the experiments.
Example compounds were weighed on a Microbalance (Mettler MX5) and dissolved in 100% DMSO to a final concentration of 2.5 mM and subsequently diluted into the assay buffer.
The Assay buffer was a supplemented HBSS (Hank's Balanced Salt Solution). HBSS was supplemented with 20 mM HEPES (4-(2-hydroxyethyl)-piperazin-1-ethansulfonic acid) and 2.5 mM Probenecid (Sigma P8761).
GPCR assays were performed using Ca^2+ optimized hematopoietic cell lines (rat) with cultures never exceeding 90% confluency. Cells were harvested and seeded (from cultures at less than 90% confluency) at 50000 cells/well for a 96-well plate (12500 cells/well for 384). After seeding, the assay plates were incubated for forty-five (45) minutes at room temperature. After room temperature incubation, the assay plates were incubated at 37° C. 5% CO2 for 24 hours prior to assaying.
All GPCR assays were performed using Fluo-8 Ca^2+ dye. Ca^2+ dye was prepared at 1× dye concentration in GPCR assay buffer. After 24 hours of incubation, cells were washed with GPCR assay buffer, and then Ca^2+-dye (100 μL/well) was added.
The plates were incubated for 90 minutes at 30° C. 5% CO2 prior to FLIPR assay.
Compound plates were prepared to add 50 μL/well during the agonist assay mode. During the FLIPR assay, 50 μL/well from the compound plate was diluted 3-fold into the existing 100 μL/well from the dye loading step. Therefore all compounds were prepared as 3× the final concentration desired in the assay.
After completion of the first single addition assay run, assay plate was removed from the FLIPR Tetra and placed at 25° C. for seven (7) minutes before antagonist assay.
Using the EC80 values determined during the agonist assay, all pre-incubated sample compound and reference antagonist (if applicable) wells were stimulated at the EC80 of the reference agonist. As reference ligands for the first three assays their obvious natural ligands motilin, prostaglandin F2α, and serotonin (5-HT, 5-Hydroxytryptamine) were used; and for the P2Y1 assay 2MeSATP (2-methyl-thio-adeno-sine 5′-triphosphate, i.e. (2R,3S,4R)-5-(6-amino-2-methylsulfanyl-purin-9-yl)-3,4-dihydroxy-tetrahydrofuran-2-yl]methyl (hydroxy-phosphonooxy-phosphoryl)hydrogen phosphate) was applied.
After the addition of the reference agonist fluorescence was monitored for 180 sec using FLIPR Tetra.
Data Analysis and Results:
From the FLIPR data, with negative control correction enabled, the maximum statistic for each well was exported and percentage activation relative to Emax control was calculated.

in vitro [2] = type: in vitro ADME, human; settings: human, plasma; for Plasma Stability 240 min hum [% remain.]: 4 h
in vitro [3] = type: in vitro ADME, mouse; settings: plasma; for Plasma Stability 240 min mouse [% remain.]: 4 h
[4] = Metabolic stability assay, human microsomes; type: in vitro ADME; settings: human, microsomes; for Metabolic Stability 60 min hum [% remain.]: 1 h; for half-life at 10 µM: both sexes
Method: (§1) 4. Plasma and Metabolic Stability Assays
(§2) The assays were conducted according to literature precedents (F. P. Guengerich, Analysis and Characterization of Enzymes; in: Principles and Methods of Toxicology; A. W. Hayes (Ed.) Raven Press: New York, 1989, 777-813; R. Singh et al., In vitro metabolism of a potent HIV-protease inhibitor (141W94) using rat, monkey and human liver S9, Rapid Commun. Mass Spectrom. 1996, 10, 1019-1026).
(§3) Metabolic Stability Assay
(§4) Microsomes from a human 50 donor mixed gender pool and 1:1 mixtures of microsomes from CD-1 mouse single-gender pools are purchased from Celsis (Belgium). The enzymatic reaction is performed in a buffer containing an NADPH regeneration system and microsomes with the following end concentrations: 100 mM potassium phosphate buffer (all from Sigma), 1 mg/mL glucose-6-phosphate, 1 mg/mL β-nicotinamide adenine dinucleotide phosphate (NADP), 0.65 mg/mL magnesium chloride, 0.8 units/mL of glucose-6-phosphate dehydrogenase (prediluted with 5 mM citrate buffer), 10 μM compound and 1 mg/ml microsomal protein. Compounds are incubated at 37° C. in duplicates and samples are taken after 0, 20 and 60 minutes. After acetonitrile precipitation (2 volumes) and HPLC/MS/MS analysis metabolic turnover is expressed in % of the initial 0 minutes value and half life T½ (min) is calculated. Verapamil for human and propranolol for mouse are used as reference and are assayed with every experimental set.

[5] = Metabolic stability assay, CD-1 mouse microsomes; type: in vitro ADME; settings: microsomes; for Metabolic Stability 60 min mouse [% remain.]: 1 h; for half-life at 10 µM: both sexes
Method: as §1, §2, §3, §4
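Throughout, for Plasma Stability 240 min mouse [% remain.]: sodium citrate stabilized mouse plasma, parent compound quantified by HPLC/MS/MS relative to its peak area at time zero, run in triplicate.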
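Throughout, for Plasma Stability T½ [min] mouse: sodium citrate stabilized mouse plasma, parent compound quantified by HPLC/MS/MS relative to its peak area at time zero, run in triplicate.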

T1 sequence (P43088 whole entry): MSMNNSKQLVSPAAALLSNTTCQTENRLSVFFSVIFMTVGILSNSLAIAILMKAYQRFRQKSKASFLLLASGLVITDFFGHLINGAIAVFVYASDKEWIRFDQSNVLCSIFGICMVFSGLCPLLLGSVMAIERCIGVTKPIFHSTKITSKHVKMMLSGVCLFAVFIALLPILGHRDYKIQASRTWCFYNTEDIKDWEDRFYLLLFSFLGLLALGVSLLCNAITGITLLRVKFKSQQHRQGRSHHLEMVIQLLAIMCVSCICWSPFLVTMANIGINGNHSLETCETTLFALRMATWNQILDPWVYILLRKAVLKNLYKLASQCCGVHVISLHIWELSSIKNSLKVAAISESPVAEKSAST

Structure (SMILES)	Plasma Stability T½ [min] hum (in vitro [2]; 10 µM)	Plasma Stability 240 min hum [% remain.] (in vitro [2]; 10 µM)	Plasma Stability T½ [min] mouse (in vitro [3]; both, CD-1, mouse, 10 µM)	Plasma Stability 240 min mouse [% remain.] (in vitro [3]; both, CD-1, mouse, 10 µM)	Metabolic Stability T½ [min] hum ([4]; both, 10 µM)	Metabolic Stability 60 min hum [% remain.] ([4]; both, 10 µM)	Metabolic Stability T½ [min] mouse ([5]; both, CD-1, mouse, 10 µM)	Metabolic Stability 60 min mouse [% remain.] ([5]; both, CD-1, mouse, 10 µM)	half-life at 10 µM [4]	half-life at 10 µM ([5]; CD-1, mouse)	further results
CN1CCC[C@H](NC(=O)Cc2ccc3ccccc3c2)C(=O)N2C[C@@H](NC(=O)Cc3ccc4cccnc4c3)C[C@H]2COc2cccc(c2)C1=O [Ex. 540, N-[(4S,6S,10S)-14-methyl-9,15-dioxo-6-{[2-(7-quinolinyl)acetyl]amino}-2-oxa-8,14-diazatricyclo[14.3.1.0^4,8]icosa-1(20),16,18-trien-10-yl]-2-(2-naphthyl)acetamide]	–	–	–	–	–	–	–	–	–	–	inhibition at 10 µM [1]: 43%
CCCCCC(=O)N[C@H]1C[C@H]2COc3cccc(c3)C(=O)N(C)CCC[C@H](NC(=O)Cc3cccc4ccccc34)C(=O)N2C1 [Ex. 544, N-[(4S,6S,10S)-14-methyl-10-{[2-(1-naphthyl)acetyl]amino}-9,15-dioxo-2-oxa-8,14-diazatricyclo[14.3.1.0^4,8]icosa-1(20),16,18-trien-6-yl]hexanamide]	–	–	–	–	–	–	–	–	–	–	inhibition at 10 µM [1]: 81%
CN1CC(=O)N2C[C@H](NC(=O)CN3CCCC3)C[C@H]2COc2ccc(cc2)C(=O)N(C)[C@H](C(=O)NCc2ccncc2)CCC1=O [Ex. 266, (4S,6R,15S)-11,16-dimethyl-9,12,17-trioxo-N-(4-pyridinylmethyl)-6-{[2-(1-pyrrolidinyl)acetyl]amino}-2-oxa-8,11,16-triazatricyclo[16.2.2.0^4,8]docosa-1(20),18,21-triene-15-carboxamide]	> 240 min	92 % remain.	> 240 min	74 % remain.	> 60 min	100 % remain.	> 60 min	98 % remain.	–	–	–
CN1CC(=O)N2C[C@@H](NC(=O)CCC(=O)O)C[C@H]2COc2ccc(F)cc2C(=O)N(C)[C@@H](C(=O)NCc2ccc3ccccc3c2)CCC1=O [Ex. 95]	–	–	–	–	–	–	–	–	–	–	Plasma Stability T½ [min] hum (in vitro [2]): > 240 min; Plasma Stability 240 min hum [% remain.] (in vitro [2]): 100 % remain.; Plasma Stability T½ [min] mouse (in vitro [3]; mouse): > 240 min; Plasma Stability 240 min mouse [% remain.] (in vitro [3]; mouse): 93 % remain.; Metabolic Stability T½ [min] hum [4]: > 60 min; Metabolic Stability 60 min hum [% remain.] [4]: 76 % remain.; Metabolic Stability T½ [min] mouse ([5]; mouse): > 60 min; Metabolic Stability 60 min mouse [% remain.] ([5]; mouse): 94 % remain.
CN1CCC[C@H](N)C(=O)N2C[C@@H](OCc3ccc(-c4cncnc4)cc3)C[C@H]2COc2cccc(c2)C1=O [Ex. 577, (4S,6S,10S)-10-amino-14-methyl-6-{[4-(5-pyrimidinyl)benzyl]oxy}-2-oxa-8,14-diazatricyclo[14.3.1.0^4,8]icosa-1(20),16,18-triene-9,15-dione]	> 240 min	87 % remain.	> 240 min	101 % remain.	–	41 % remain.	–	25 % remain.	0.783 h	0.45 h	–
CC(=O)N[C@H]1C[C@H]2COc3ccc(F)cc3C(=O)N(C)[C@H](C(=O)N3CCCC3)CCC(=O)N(C)CC(=O)N2C1 [Ex. 37, N-[(2S,11S,19aS)-15-fluoro-7,12-dimethyl-5,8,13-trioxo-11-(1-pyrrolidinylcarbonyl)-2,3,6,7,8,9,10,11,12,13,19,19a-dodecahydro-1H,5H-pyrrolo[2,1-c] [1,4,7,12]benzoxatriazacyclo-pentadecin-2-yl]acetamide]	–	–	–	–	–	–	–	–	–	–	Plasma Stability T½ [min] hum (in vitro [2]): > 240 min; Plasma Stability 240 min hum [% remain.] (in vitro [2]): 77 % remain.; Plasma Stability T½ [min] mouse (in vitro [3]; mouse): > 240 min; Plasma Stability 240 min mouse [% remain.] (in vitro [3]; mouse): 100 % remain.; Metabolic Stability T½ [min] hum [4]: > 60 min; Metabolic Stability 60 min hum [% remain.] [4]: 100 % remain.; Metabolic Stability T½ [min] mouse ([5]; mouse): > 60 min; Metabolic Stability 60 min mouse [% remain.] ([5]; mouse): 100 % remain.
CN1CC(=O)N2C[C@@H](N)C[C@H]2COc2ccc(F)cc2C(=O)N(C)[C@@H](C(=O)NCc2ccc3ccccc3c2)CCC1=O [Ex. 91, (2S,11R,19aS)-2-amino-15-fluoro-7,12-dimethyl-N-(2-naphthylmethyl)-5,8,13-trioxo-2,3,6,7,8,9,10,11,12,13,19,19a-dodecahydro-1H,5H-pyrrolo[2,1-c][1,4,7,12] benzoxatriazacyclopentadecine-11-carboxamide]	> 240 min	96 % remain.	> 240 min	88 % remain.	> 60 min	91 % remain.	> 60 min	95 % remain.	–	–	–
CCCCCCCCCC(=O)N[C@H]1C[C@H]2COc3ccc(F)cc3C(=O)N(C)[C@@H](C(=O)NCc3ccc4ccccc4c3)CCC(=O)N(C)CC(=O)N2C1 [Ex. 102, (2S,11R,19aS)-2-(decanoylamino)-15-fluoro-7,12-dimethyl-N-(2-naphthylmethyl)-5,8,13-trioxo-2,3,6,7,8,9,10,11,12,13,19,19a-dodecahydro-1H,5H-pyrrolo[2,1-c][1,4,7,12] benzoxatriazacyclopentadecine-11-carboxamide]	> 240 min	65 % remain.	> 240 min	75 % remain.	–	4 % remain.	–	39 % remain.	0.383 h	0.7 h	–
CCN(CC)[C@@H]1C[C@H]2COc3ccc(cc3)C(=O)N(C)[C@H](C(=O)NCc3ccc4ccccc4c3)CCC(=O)N(C)CC(=O)N2C1 [Ex. 262, (4S,6R,15S)-6-(diethylamino)-11,16-dimethyl-N-(2-naphthylmethyl)-9,12,17-trioxo-2-oxa-8,11,16-triazatricyclo[16.2.2.0^4,8]docosa-1(20),18,21-triene-15-carboxamide]	> 240 min	100 % remain.	> 240 min	93 % remain.	–	0 % remain.	–	4 % remain.	0.35 h	0.383 h	–
CN1CCC[C@H](NC(=O)CC(C)(C)C)C(=O)N2C[C@@H](N)C[C@H]2COc2cccc(c2)C1=O [Ex. 533, N-[(4S,6S,10S)-6-amino-14-methyl-9,15-dioxo-2-oxa-8,14-diazatricyclo[14.3.1.0^4,8]icosa-1(20),16,18-trien-10-yl]-3,3-dimethylbutanamide]	> 240 min	95 % remain.	> 240 min	100 % remain.	> 60 min	59 % remain.	> 60 min	93 % remain.	–	–	–
